Measured values published in patent US7608577B2, “Peptidyl ketones as inhibitors of DPIV” (OSI Pharmaceuticals, Inc., priority 2001, dated 2009).

Legend:
[1] = target: T1, Angiotensin-I converting enzyme (ACE) (Oryctolagus cuniculus, UniProt P12822); assay: Cross reacting enzymes: ACE; format: biochemical; details: Sigma enzyme A-6778
T1 construct: purchased Sigma A-6778
T1 sequence (P12822 34-1310): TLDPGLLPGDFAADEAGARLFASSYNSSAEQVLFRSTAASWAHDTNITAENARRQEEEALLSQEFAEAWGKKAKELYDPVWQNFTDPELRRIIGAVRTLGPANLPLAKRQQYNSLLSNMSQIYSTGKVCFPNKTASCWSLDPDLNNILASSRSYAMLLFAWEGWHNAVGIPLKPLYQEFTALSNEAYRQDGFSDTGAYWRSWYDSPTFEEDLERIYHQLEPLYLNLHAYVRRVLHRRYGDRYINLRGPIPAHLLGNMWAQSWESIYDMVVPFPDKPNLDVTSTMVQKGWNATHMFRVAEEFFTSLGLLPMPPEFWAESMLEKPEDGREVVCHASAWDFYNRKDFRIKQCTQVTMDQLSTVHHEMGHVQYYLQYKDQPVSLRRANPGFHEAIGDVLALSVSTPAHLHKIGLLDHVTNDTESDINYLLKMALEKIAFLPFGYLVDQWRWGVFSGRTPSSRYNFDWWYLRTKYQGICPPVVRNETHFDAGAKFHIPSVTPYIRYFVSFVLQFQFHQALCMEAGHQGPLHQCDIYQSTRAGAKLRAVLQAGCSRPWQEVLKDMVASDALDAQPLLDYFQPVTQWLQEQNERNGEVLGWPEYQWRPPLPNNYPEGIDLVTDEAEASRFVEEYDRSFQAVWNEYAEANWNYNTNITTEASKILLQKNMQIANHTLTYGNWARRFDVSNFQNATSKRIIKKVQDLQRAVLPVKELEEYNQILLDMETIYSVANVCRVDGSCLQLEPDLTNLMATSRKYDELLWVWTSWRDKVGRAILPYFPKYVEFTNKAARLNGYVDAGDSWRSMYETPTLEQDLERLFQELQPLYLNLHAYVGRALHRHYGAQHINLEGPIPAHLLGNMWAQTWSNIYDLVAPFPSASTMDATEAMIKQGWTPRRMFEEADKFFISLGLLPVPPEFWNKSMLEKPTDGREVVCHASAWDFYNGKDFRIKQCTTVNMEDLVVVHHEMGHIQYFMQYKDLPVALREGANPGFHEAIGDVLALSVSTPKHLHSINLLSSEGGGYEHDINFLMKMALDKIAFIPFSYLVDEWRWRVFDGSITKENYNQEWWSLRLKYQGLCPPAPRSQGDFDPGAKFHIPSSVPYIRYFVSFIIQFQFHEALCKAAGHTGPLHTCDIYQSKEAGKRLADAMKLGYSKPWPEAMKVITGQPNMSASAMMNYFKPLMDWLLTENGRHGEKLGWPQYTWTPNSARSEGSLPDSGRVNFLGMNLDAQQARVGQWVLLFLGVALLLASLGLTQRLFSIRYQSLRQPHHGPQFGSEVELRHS
Description: For IC50 determination of ACE an enzyme produced by Sigma was used (Prod. No. A-6778). The assay procedure and calculation of activity described by the manufacturer was adapted to half of the described volumes.
The IC50-values were calculated using Graphit 4.0.15 (Erithacus Software, Ltd., UK).

[2] = target: T2, Prolidase from porcine kidney (Sus scrofa, UniProt A0A5G2QQV1); assay: Cross reacting enzymes: prolidase; format: biochemical; details: substrate Ile-Pro-OH, pH 7.6
T2 sequence (A0A5G2QQV1 1-463): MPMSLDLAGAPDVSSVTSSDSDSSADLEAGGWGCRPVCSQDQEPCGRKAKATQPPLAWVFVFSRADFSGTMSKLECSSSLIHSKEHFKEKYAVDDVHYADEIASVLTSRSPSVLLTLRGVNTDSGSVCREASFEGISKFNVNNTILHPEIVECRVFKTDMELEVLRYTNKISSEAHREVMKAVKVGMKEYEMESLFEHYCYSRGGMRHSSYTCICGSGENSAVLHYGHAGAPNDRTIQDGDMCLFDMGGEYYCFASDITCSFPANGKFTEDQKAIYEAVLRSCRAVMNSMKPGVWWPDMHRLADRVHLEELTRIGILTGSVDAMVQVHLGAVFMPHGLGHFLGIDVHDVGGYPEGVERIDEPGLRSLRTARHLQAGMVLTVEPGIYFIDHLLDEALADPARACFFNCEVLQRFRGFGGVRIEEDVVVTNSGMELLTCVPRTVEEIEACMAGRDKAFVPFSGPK
Description: Prolidase from porcine kidney (ICN Biomedicals, Eschwege, Germany) was solved (1 mg/ml) in assay buffer (20 mM NH4(CH3COO)2, 3 mM MnCl2, pH 7.6). In order to get a fully active enzyme the solution was incubated for 60 min at room temperature.
450 μl solution with the test compounds in an concentration range of 5*10^−3 M-5*10^−7 M were admixed with 500 μl buffer solution (20 mM NH4(CH3COO)2, pH 7.6) and 250 μl Ile-Pro-OH (0.5 mM in the assay mixture). The assay mixture was pre-incubated at 30° C. for 5 min. After pre-incubation, 75 μl Prolidase (1:10 diluted in assay buffer) was added and measurement was performed at 30° C. and λ=220 nm for 20 min using a UV/Vis photometer, UV1 (Thermo Spectromc, Cambridge, UK).
The IC 50-values were calculated using Graphit 4.0.15 (Erithacus Software, Ltd., UK).

| Structure (SMILES) | ACE IC50 [1] | Prolidase IC50 [2] | IC50 [2] |
| --- | --- | --- | --- |
| Br.CC(=O)OCC(=O)[C@@H]1CCCN1C(=O)[C@@H](NC(=O)[C@H](C)N)C(C)C [H-Ala-Val-Pro-CH2O—CO—CH3*HBr, 2-[(Acetyloxy-methyl)carbonyl]-1-N-[(L)-Alanyl-(L)-Valinyl]-(2S)-pyrrolidine hydrobromide] | no inhibition | no inhibition | – |
| Br.CC(C)[C@H](NC(=O)[C@H](C)N)C(=O)N1CCC[C@H]1C(=O)COC(=O)c1ccccc1 [H-Ala-Val-Pro-CO—CH2O—CO—Ph*HBr, 2-[(Benzoyloxy-methyl)carbonyl]-1-N-[{(L)-Alanyl}-(L)-Valinyl]-(2S)-pyrrolidine hydrobromide] | no inhibition | – | 414 µM |
| Br.CC(=O)[C@@H]1CCCN1C(=O)[C@@H](NC(=O)[C@H](C)N)C(C)C [H-Ala-Val-Pro-Me*HBr, 2-Methylcarbonyl-1-N-[(L)-Alanyl-(L)-Valinyl]-(2S)-pyrrolidine hydrobromide] | no inhibition | – | 413 µM |
